Laboratory results as given in US9340590B2 (priority 2011, dated 2016).
Like-named read-outs stand apart in the source and are kept apart here. Positions of bridges follow the written chain, without caps; N, C: chain ends. Non-standard residues stand in square brackets, D forms with d. Residues, ends and D or L forms follow the SMILES beside them. 1Nal = N[C@@H](Cc1cccc2ccccc12)C(=O)O; 3Pal = N[C@@H](Cc1cccnc1)C(=O)O

Key:
Assay in all cases: cell-based
[1] = target: hNav1.5 (Homo sapiens, UniProt Q14524); details: IonWorks Quattro, read-out: IWQ Use Nav1.5
Sequence of hNav1.5 (Q14524 whole entry, looked up): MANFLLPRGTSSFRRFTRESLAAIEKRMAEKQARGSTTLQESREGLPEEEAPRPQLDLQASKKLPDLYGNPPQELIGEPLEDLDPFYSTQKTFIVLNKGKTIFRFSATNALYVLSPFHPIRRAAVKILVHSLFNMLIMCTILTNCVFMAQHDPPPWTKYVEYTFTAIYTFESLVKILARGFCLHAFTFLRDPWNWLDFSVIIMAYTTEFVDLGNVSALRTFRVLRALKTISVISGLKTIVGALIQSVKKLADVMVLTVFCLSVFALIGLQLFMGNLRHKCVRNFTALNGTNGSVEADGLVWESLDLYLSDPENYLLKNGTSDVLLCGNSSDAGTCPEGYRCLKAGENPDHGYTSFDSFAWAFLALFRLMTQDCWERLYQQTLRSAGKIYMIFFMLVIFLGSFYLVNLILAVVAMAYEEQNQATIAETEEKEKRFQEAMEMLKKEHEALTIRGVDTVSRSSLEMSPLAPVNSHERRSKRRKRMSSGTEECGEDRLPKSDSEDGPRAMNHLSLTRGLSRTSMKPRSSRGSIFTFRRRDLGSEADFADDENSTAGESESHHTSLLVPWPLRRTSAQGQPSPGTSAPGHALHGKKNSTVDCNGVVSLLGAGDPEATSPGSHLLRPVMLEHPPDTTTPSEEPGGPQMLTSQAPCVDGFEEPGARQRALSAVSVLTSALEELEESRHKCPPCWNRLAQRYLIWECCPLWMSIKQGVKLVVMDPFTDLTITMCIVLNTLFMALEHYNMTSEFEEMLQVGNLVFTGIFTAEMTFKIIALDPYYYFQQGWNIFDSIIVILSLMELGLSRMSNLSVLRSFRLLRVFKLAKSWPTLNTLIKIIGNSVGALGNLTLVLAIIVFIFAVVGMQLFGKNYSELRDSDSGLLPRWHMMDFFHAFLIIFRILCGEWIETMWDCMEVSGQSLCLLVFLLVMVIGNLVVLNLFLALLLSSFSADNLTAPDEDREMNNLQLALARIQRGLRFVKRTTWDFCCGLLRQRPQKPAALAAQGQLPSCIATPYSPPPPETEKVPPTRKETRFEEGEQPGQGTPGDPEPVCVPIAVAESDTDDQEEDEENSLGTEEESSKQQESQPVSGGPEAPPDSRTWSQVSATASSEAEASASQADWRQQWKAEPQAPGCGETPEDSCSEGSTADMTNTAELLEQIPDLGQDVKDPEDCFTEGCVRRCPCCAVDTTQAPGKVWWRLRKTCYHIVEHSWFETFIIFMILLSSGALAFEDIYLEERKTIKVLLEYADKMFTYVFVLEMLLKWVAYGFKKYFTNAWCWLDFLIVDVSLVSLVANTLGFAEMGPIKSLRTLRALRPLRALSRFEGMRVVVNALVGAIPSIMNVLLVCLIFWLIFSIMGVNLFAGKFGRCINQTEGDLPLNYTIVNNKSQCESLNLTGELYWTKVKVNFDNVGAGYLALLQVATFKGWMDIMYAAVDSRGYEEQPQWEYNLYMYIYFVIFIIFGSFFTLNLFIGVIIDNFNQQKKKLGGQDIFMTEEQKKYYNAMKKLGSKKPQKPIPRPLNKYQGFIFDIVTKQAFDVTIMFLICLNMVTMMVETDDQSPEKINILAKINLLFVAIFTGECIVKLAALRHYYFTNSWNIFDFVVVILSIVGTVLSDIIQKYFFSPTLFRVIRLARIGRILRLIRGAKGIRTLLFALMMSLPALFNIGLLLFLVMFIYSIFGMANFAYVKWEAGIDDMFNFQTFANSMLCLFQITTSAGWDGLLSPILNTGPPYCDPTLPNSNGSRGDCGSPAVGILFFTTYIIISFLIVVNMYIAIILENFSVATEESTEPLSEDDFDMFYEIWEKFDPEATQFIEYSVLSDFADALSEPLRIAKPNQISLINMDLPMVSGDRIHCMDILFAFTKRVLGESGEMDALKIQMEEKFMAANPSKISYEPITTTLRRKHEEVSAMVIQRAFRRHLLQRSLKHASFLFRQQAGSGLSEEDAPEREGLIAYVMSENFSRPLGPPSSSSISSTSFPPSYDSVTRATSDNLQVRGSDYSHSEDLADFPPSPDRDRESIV

[2] = target: hNav1.3 (Homo sapiens, UniProt Q9NY46); details: IonWorks Quattro, read-out: IWQ Use Nav1.3
[3] = target: hNav1.7 (Homo sapiens, UniProt Q15858); assay type: cell-based; details: IonWorks Quattro, read-out: IWQ Use Nav1.7
Sequence of hNav1.7 (Q15858 whole entry, looked up): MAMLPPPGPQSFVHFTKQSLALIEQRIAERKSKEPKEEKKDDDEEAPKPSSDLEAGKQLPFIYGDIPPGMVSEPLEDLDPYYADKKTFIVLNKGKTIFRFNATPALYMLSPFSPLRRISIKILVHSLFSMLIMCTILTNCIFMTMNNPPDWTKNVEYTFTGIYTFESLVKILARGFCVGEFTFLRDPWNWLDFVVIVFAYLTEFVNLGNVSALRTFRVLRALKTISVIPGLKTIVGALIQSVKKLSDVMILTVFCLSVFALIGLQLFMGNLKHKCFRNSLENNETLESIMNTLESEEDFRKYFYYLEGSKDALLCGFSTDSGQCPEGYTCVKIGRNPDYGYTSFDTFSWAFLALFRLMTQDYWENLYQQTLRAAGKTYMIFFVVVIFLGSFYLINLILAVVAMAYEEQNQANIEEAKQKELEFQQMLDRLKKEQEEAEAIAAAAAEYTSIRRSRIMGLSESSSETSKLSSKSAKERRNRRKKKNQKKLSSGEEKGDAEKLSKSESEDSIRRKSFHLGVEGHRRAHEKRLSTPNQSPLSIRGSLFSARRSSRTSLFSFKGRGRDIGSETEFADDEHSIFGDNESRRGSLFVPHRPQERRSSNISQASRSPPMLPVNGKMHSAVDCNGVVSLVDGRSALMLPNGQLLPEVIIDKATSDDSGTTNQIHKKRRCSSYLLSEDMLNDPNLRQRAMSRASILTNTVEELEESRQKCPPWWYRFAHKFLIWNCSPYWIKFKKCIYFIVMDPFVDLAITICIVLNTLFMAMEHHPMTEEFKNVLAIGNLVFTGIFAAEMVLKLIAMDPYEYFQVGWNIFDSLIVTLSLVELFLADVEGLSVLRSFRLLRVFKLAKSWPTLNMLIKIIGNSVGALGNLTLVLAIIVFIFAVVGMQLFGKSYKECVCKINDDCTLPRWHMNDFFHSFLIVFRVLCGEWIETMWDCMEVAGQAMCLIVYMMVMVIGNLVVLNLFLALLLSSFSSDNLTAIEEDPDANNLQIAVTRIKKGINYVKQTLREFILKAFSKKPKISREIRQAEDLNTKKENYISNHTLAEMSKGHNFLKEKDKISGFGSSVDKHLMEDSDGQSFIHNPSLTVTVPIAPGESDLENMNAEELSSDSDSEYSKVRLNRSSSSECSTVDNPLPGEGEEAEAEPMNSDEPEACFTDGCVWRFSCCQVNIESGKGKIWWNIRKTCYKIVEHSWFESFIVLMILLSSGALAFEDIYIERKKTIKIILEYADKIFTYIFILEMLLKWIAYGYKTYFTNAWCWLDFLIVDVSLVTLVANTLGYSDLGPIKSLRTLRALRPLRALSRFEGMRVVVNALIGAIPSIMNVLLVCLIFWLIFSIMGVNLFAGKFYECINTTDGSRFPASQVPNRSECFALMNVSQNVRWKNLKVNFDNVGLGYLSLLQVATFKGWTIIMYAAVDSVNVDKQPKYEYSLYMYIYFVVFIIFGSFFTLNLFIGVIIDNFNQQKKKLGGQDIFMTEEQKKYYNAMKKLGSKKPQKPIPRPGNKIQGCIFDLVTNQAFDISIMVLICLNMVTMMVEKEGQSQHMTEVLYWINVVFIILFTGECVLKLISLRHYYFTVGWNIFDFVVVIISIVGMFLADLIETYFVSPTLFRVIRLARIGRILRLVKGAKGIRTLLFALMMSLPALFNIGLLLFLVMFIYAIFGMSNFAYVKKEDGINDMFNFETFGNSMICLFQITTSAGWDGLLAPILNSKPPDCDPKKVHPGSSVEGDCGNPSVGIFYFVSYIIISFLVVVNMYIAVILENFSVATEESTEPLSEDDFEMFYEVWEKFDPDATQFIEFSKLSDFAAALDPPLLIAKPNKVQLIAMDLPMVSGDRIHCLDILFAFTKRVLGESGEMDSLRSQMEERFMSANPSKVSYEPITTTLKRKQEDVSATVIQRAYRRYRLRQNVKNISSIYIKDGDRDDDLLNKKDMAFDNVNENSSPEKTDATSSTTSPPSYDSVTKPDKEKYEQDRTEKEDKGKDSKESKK

| SMILES | IC50 ([1]; use-dependent block, hNav1.5) [nM] | IC50 ([2]; use-dependent block, hNav1.3) [nM] | IC50 ([3]; use-dependent block, hNav1.7) [nM] | further results |
| --- | --- | --- | --- | --- |
| CC[C@H](C)[C@@H]1NC(=O)[C@@H]2CSSC[C@@H]3NC(=O)[C@H](C(C)C)NC(=O)[C@H](CC(C)C)NC(=O)[C@H](CC(N)=O)NC(=O)[C@@H]4CCCN4C(=O)[C@H](CCCNC(=N)N)NC(=O)[C@H](CSSC[C@H](NC(=O)[C@@H](N)CC(=O)O)C(=O)N[C@@H](CC(C)C)C(=O)NCC(=O)N[C@@H](Cc4cccnc4)C(=O)N[C@@H](Cc4ccccc4)C(=O)N[C@@H](CCCNC(=N)N)C(=O)N[C@@H](CCCCN)C(=O)N2)NC(=O)[C@H](CSSC[C@@H](C(=O)N[C@@H](CCCCN)C(=O)N[C@@H](Cc2ccc(O)cc2)C(=O)N[C@H](C(=O)N[C@@H](Cc2ccccc2)C(N)=O)C(C)C)NC(=O)[C@H](Cc2c[nH]c4ccccc24)NC(=O)[C@H](CCCCN)NC(=O)[C@H](Cc2c[nH]cn2)NC(=O)[C@H]([C@@H](C)O)NC(=O)[C@H](CCCNC(=N)N)NC(=O)[C@H](CO)NC3=O)NC(=O)[C@H](CCCCN)NC(=O)[C@H](CC(=O)O)NC(=O)[C@H](CC(N)=O)NC(=O)[C@H](CC(=O)O)NC(=O)[C@@H]2CCCN2C1=O [compound 613] (H-DCLG[3Pal]FRKCIPDNDKCCRPNLVCSRTHKWCKYVF-NH2; disulfide 2-17, 9-23, 16-30) | 18700 | 3600 | 950 | – |
| CC[C@H](C)[C@@H]1NC(=O)[C@@H]2CSSC[C@@H]3NC(=O)[C@H](C(C)C)NC(=O)[C@H](CC(C)C)NC(=O)[C@H](CC(N)=O)NC(=O)[C@@H]4CCCN4C(=O)[C@H](CCCNC(=N)N)NC(=O)[C@H](CSSC[C@H](NC(=O)[C@@H](N)CC(=O)O)C(=O)N[C@@H](CC(C)C)C(=O)NCC(=O)N[C@@H](C)C(=O)N[C@@H](CCSC)C(=O)N[C@@H](CCCNC(=N)N)C(=O)N[C@@H](CCCCN)C(=O)N2)NC(=O)[C@H](CSSC[C@@H](C(=O)N[C@@H](CCCCN)C(=O)N[C@@H](Cc2ccc(O)cc2)C(=O)N[C@H](C(=O)N[C@@H](Cc2ccccc2)C(N)=O)C(C)C)NC(=O)[C@H](Cc2c[nH]c4ccccc24)NC(=O)[C@H](CC(C)C)NC(=O)[C@H](Cc2c[nH]cn2)NC(=O)[C@H]([C@@H](C)O)NC(=O)[C@H](CCCNC(=N)N)NC(=O)[C@H](CO)NC3=O)NC(=O)[C@H](CCCCN)NC(=O)[C@H](CC(=O)O)NC(=O)[C@H](CC(N)=O)NC(=O)[C@H](CC(=O)O)NC(=O)[C@@H]2CCCN2C1=O [compound 766] (H-DCLGAMRKCIPDNDKCCRPNLVCSRTHLWCKYVF-NH2; disulfide 2-17, 9-23, 16-30) | 49300 | 2700 | 1100 | – |
| CC[C@H](C)[C@@H]1NC(=O)[C@@H]2CSSC[C@@H]3NC(=O)[C@H](C(C)C)NC(=O)[C@H](CC(C)C)NC(=O)[C@H](CC(N)=O)NC(=O)[C@@H]4CCCN4C(=O)[C@H](CCCNC(=N)N)NC(=O)[C@H](CSSC[C@H](NC(=O)[C@@H](N)CC(=O)O)C(=O)N[C@@H](CC(C)C)C(=O)NCC(=O)N[C@@H](Cc4ccccc4)C(=O)N[C@@H](CCSC)C(=O)N[C@@H](CCCNC(=N)N)C(=O)N[C@@H](CCCCN)C(=O)N2)NC(=O)[C@H](CSSC[C@@H](C(=O)N[C@@H](CCCCN)C(=O)N[C@@H](Cc2ccc(O)cc2)C(=O)N[C@H](C(=O)N[C@@H](Cc2cccc4ccccc24)C(N)=O)C(C)C)NC(=O)[C@H](Cc2c[nH]c4ccccc24)NC(=O)[C@H](CCCCN)NC(=O)[C@H](Cc2cnc[nH]2)NC(=O)[C@H]([C@@H](C)O)NC(=O)[C@H](CCCNC(=N)N)NC(=O)[C@H](CO)NC3=O)NC(=O)[C@H](CCCCN)NC(=O)[C@H](CC(=O)O)NC(=O)[C@H](CC(N)=O)NC(=O)[C@H](CC(=O)O)NC(=O)[C@@H]2CCCN2C1=O [compound 80] (H-DCLGFMRKCIPDNDKCCRPNLVCSRTHKWCKYV[1Nal]-NH2; disulfide 2-17, 9-23, 16-30) | – | – | – | IC50 ([1]; use-dependent, […]): 10200 nM; IC50 ([2]; use-dependent, […]): 30 nM; IC50 ([3]; use-dependent, […]): 20 nM |
| CC[C@H](C)[C@@H]1NC(=O)[C@@H]2CSSC[C@@H]3NC(=O)[C@H](C(C)C)NC(=O)[C@H](CC(C)C)NC(=O)[C@H](CC(N)=O)NC(=O)[C@@H]4CCCN4C(=O)[C@H](CCCNC(=N)N)NC(=O)[C@H](CSSC[C@H](NC(=O)[C@@H](N)CC(=O)O)C(=O)N[C@@H](CC(C)C)C(=O)NCC(=O)N[C@@H](Cc4ccccc4)C(=O)N[C@@H](CCSC)C(=O)N[C@@H](CCCNC(=N)N)C(=O)N[C@@H](CCCCN)C(=O)N2)NC(=O)[C@H](CSSC[C@@H](C(=O)N[C@@H](CCCCN)C(=O)N[C@@H](Cc2ccc(O)cc2)C(=O)N[C@@H](Cc2cccc4ccccc24)C(=O)N[C@@H](Cc2ccccc2)C(N)=O)NC(=O)[C@H](Cc2c[nH]c4ccccc24)NC(=O)[C@H](CCCNC(=N)N)NC(=O)[C@H](Cc2c[nH]cn2)NC(=O)[C@H]([C@@H](C)O)NC(=O)[C@H](CCCNC(=N)N)NC(=O)[C@H](CO)NC3=O)NC(=O)[C@H](CCCCN)NC(=O)[C@H](CC(=O)O)NC(=O)[C@H](CC(N)=O)NC(=O)[C@H](CC(=O)O)NC(=O)[C@@H]2CCCN2C1=O [compound 442] (H-DCLGFMRKCIPDNDKCCRPNLVCSRTHRWCKY[1Nal]F-NH2; disulfide 2-17, 9-23, 16-30) | > 5000 | 40 | 30 | – |
| CC[C@H](C)[C@@H]1NC(=O)[C@@H]2CSSC[C@@H]3NC(=O)[C@H](C(C)C)NC(=O)[C@H](CC(C)C)NC(=O)[C@H](CC(N)=O)NC(=O)[C@@H]4CCCN4C(=O)[C@H](CCCNC(=N)N)NC(=O)[C@H](CSSC[C@H](NC(=O)[C@@H](N)CC(=O)O)C(=O)N[C@@H](CC(C)C)C(=O)NCC(=O)N[C@@H](Cc4ccccc4)C(=O)N[C@@H](CCSC)C(=O)N[C@@H](CCCNC(=N)N)C(=O)N[C@@H](CCCCN)C(=O)N2)NC(=O)[C@H](CSSC[C@@H](C(=O)N[C@@H](CCCCN)C(=O)N[C@@H](Cc2ccc(O)cc2)C(=O)N[C@H](C(=O)N[C@@H](Cc2ccccc2)C(N)=O)C(C)C)NC(=O)[C@H](Cc2c[nH]c4ccccc24)NC(=O)[C@H](CCCCN)NC(=O)[C@H](Cc2c[nH]cn2)NC(=O)[C@H]([C@@H](C)O)NC(=O)[C@H](CCCNC(=N)N)NC(=O)[C@H](CO)NC3=O)NC(=O)[C@H](CCC(N)=O)NC(=O)[C@H](CC(=O)O)NC(=O)[C@H](CC(N)=O)NC(=O)[C@H](CC(=O)O)NC(=O)[C@@H]2CCCN2C1=O [compound 92] (H-DCLGFMRKCIPDNDQCCRPNLVCSRTHKWCKYVF-NH2; disulfide 2-17, 9-23, 16-30) | – | – | – | IC50 ([1]; Use): 7600 nM; IC50 ([2]; Use): 120 nM; IC50 ([3]; Use): 130 nM |
| CC[C@H](C)[C@@H]1NC(=O)[C@@H]2CSSC[C@@H]3NC(=O)[C@H](C(C)C)NC(=O)[C@H](CC(C)C)NC(=O)[C@H](CC(N)=O)NC(=O)[C@@H]4CCCN4C(=O)[C@H](CCCNC(=N)N)NC(=O)[C@H](CSSC[C@H](NC(=O)[C@@H](N)CC(=O)O)C(=O)N[C@@H](CC(C)C)C(=O)NCC(=O)N[C@@H](C)C(=O)N[C@@H](CCSC)C(=O)N[C@@H](CCCNC(=N)N)C(=O)N[C@@H](CCCCN)C(=O)N2)NC(=O)[C@H](CSSC[C@@H](C(=O)N[C@@H](CCCCN)C(=O)N[C@@H](Cc2ccc(O)cc2)C(=O)N[C@H](C(=O)N[C@@H](C)C(N)=O)C(C)C)NC(=O)[C@H](Cc2c[nH]c4ccccc24)NC(=O)[C@H](CCCCN)NC(=O)[C@H](Cc2c[nH]cn2)NC(=O)[C@H]([C@@H](C)O)NC(=O)[C@H](CCCNC(=N)N)NC(=O)[C@H](CO)NC3=O)NC(=O)[C@H](CCCCN)NC(=O)[C@H](CC(=O)O)NC(=O)[C@H](CC(N)=O)NC(=O)[C@H](CC(=O)O)NC(=O)[C@@H]2CCCN2C1=O [compound 431] (H-DCLGAMRKCIPDNDKCCRPNLVCSRTHKWCKYVA-NH2; disulfide 2-17, 9-23, 16-30) | > 5000 | > 5000 | > 5000 | – |
| CC[C@H](C)[C@@H]1NC(=O)[C@@H]2CSSC[C@@H]3NC(=O)[C@H](C(C)C)NC(=O)[C@H](CC(C)C)NC(=O)[C@H](CC(N)=O)NC(=O)[C@@H]4CCCN4C(=O)[C@H](CCCNC(=N)N)NC(=O)[C@H](CSSC[C@H](NC(=O)[C@@H](N)CC(=O)O)C(=O)N[C@@H](CC(C)C)C(=O)NCC(=O)N[C@@H](Cc4ccccc4)C(=O)N[C@@H](CCSC)C(=O)N[C@@H](CCCNC(=N)N)C(=O)N[C@@H](CCCCN)C(=O)N2)NC(=O)[C@H](CSSC[C@@H](C(=O)N[C@@H](CCCCN)C(=O)N[C@@H](Cc2ccc(O)cc2)C(=O)N[C@@H](CC(N)=O)C(=O)N[C@@H](Cc2ccccc2)C(N)=O)NC(=O)[C@H](Cc2c[nH]c4ccccc24)NC(=O)[C@H](CCCCN)NC(=O)[C@H](Cc2c[nH]cn2)NC(=O)[C@H]([C@@H](C)O)NC(=O)[C@H](CCCNC(=N)N)NC(=O)[C@H](CO)NC3=O)NC(=O)[C@H](CCCCN)NC(=O)[C@H](CC(=O)O)NC(=O)[C@H](CC(N)=O)NC(=O)[C@H](CC(=O)O)NC(=O)[C@@H]2CCCN2C1=O [compound 394] (H-DCLGFMRKCIPDNDKCCRPNLVCSRTHKWCKYNF-NH2; disulfide 2-17, 9-23, 16-30) | – | – | – | IC50 ([1]; Table 26, use, […]): 7940 nM; IC50 ([2]; Table 26, use, […]): 70 nM; IC50 ([3]; Table 26, use, […]): 360 nM |
